Our source for the IC50 values is ChEMBL document CHEMBL4417631, “Oral peptide inhibitors of interleukin-23 receptor and their use to treat inflammatory bowel diseases” (2017).

Where a SMILES comes first, the peptide text is derived from it. [ ]: non-standard residue; d: D form. hLeu = CC(C)CC[C@H](N)C(=O)O

This experiment in a line: Inhibition of interleukin-23 binding to rat interleukin-23 receptor incubated for 2 hrs by competitive binding ELISA.
`CC(=O)N[C@@H](CS)C(=O)N[C@@H](CCC(N)=O)C(=O)N[C@H](C(=O)N[C@@H](Cc1c[nH]c2ccccc12)C(=O)N[C@@H](CCC(N)=O)C(=O)N[C@@H](CS)C(=O)N[C@@H](Cc1ccc(O)cc1)C(=O)N[C@@H](Cc1c[nH]c2ccccc12)C(=O)N[C@@H](CCC(C)C)C(=O)N[C@@H](CCC(=O)O)C(=O)N[C@@H](CC(N)=O)C(=O)N[C@@H](Cc1ccccc1)C(N)=O)[C@@H](C)O` yielded a concentration for half-maximal inhibition (IC50) of 182 nM. That is a sub-micromolar value.

`CC(=O)N[C@@H](CS)C(=O)N[C@@H](CCC(N)=O)C(=O)N[C@H](C(=O)N[C@@H](Cc1c[nH]c2ccccc12)C(=O)N[C@@H](CCC(N)=O)C(=O)N[C@@H](CS)C(=O)N[C@@H](Cc1ccc(O)cc1)C(=O)N[C@@H](Cc1cccc2ccccc12)C(=O)N[C@@](C)(CC(C)C)C(=O)N[C@@H](CCC(=O)O)C(=O)N[C@@H](CC(N)=O)C(=O)NCC(N)=O)[C@@H](C)O`: the IC50 was found to be 67 nM.

With `CC(=O)N[C@@H](CS)C(=O)N[C@@H](CCN)C(=O)N[C@H](C(=O)N[C@@H](Cc1c[nH]c2ccccc12)C(=O)N[C@@H](CCC(N)=O)C(=O)N[C@@H](CS)C(=O)N[C@@H](Cc1ccc(O)cc1)C(=O)N[C@@H](Cc1c[nH]c2ccccc12)C(=O)N[C@@H](CCCNC(=N)N)C(=O)N[C@H](C(=O)N[C@@H](Cc1ccccc1)C(=O)NCC(=O)NCCOCC(=O)N[C@H](CCCCN)C(N)=O)C(C)C)[C@@H](C)O`, the IC50 turned out to be 51 nM.

In the case of `CC(=O)N[C@@H](CS)C(=O)N[C@H](C(=O)N[C@H](C(=O)N[C@@H](Cc1c[nH]c2ccccc12)C(=O)N[C@@H](CCC(N)=O)C(=O)N[C@@H](CS)C(=O)N[C@@H](Cc1ccc(O)cc1)C(=O)N[C@@H](Cc1c[nH]c2ccccc12)C(=O)N[C@@H](CCC(C)C)C(=O)N[C@@H](CCC(=O)O)C(=O)N[C@@H](CC(N)=O)C(=O)NCC(N)=O)[C@@H](C)O)[C@@H](C)O` (Ac-CTTWQCYW[hLeu]ENG-NH2), the IC50 worked out at 28 nM.

In turn, `CC(=O)N[C@@H](CS)C(=O)N[C@@H](CCC(N)=O)C(=O)N[C@H](C(=O)N[C@@H](Cc1c[nH]c2ccccc12)C(=O)N[C@@H](CCC(N)=O)C(=O)N[C@@H](CS)C(=O)N[C@@H](Cc1ccc(O)cc1)C(=O)N[C@@H](Cc1c[nH]c2ccccc12)C(=O)N[C@@H](Cc1cccnc1)C(=O)N[C@@H](CCC(=O)O)C(=O)N[C@@H](CC(N)=O)C(=O)NCC(N)=O)[C@@H](C)O` showed an IC50 of 20 nM. This IC50 and that of the compound before are within 1.5-fold of each other.

The compound `CC(=O)N[C@@H](Cc1ccccc1)C(=O)N[C@@H](CS)C(=O)N[C@@H](CCC(N)=O)C(=O)N[C@H](C(=O)N[C@@H](Cc1c[nH]c2ccccc12)C(=O)N[C@@H](CCC(N)=O)C(=O)N[C@@H](CS)C(=O)N[C@@H](Cc1ccc(O)cc1)C(=O)N[C@@H](Cc1c[nH]c2ccccc12)C(=O)N[C@@H](CCC(C)C)C(=O)N[C@@H](CCC(=O)O)C(=O)N[C@@H](CC(N)=O)C(=O)NCC(N)=O)[C@@H](C)O` gave an IC50 of 25 nM.

Compound `CC(=O)N[C@@H](CS)C(=O)N[C@@H](CCC(N)=O)C(=O)N[C@H](C(=O)N[C@@H](Cc1c[nH]c2ccccc12)C(=O)N[C@@H](CCC(N)=O)C(=O)N[C@@H](CS)C(=O)N[C@@H](Cc1ccc(O)cc1)C(=O)N[C@@H](Cc1c[nH]c2ccccc12)C(=O)N[C@@H](CCC(C)C)C(=O)N[C@@H](CCC(=O)O)C(=O)N[C@@H](CCC(=O)O)C(=O)NCC(N)=O)[C@@H](C)O` (Ac-CQTWQCYW[hLeu]EEG-NH2) displayed an IC50 of 53 nM.

Take `CC(=O)N[C@@H](CS)C(=O)N[C@@H](CCC(N)=O)C(=O)N[C@H](C(=O)N[C@@H](Cc1c[nH]c2ccccc12)C(=O)N[C@@H](CCC(N)=O)C(=O)N[C@@H](CS)C(=O)N[C@@H](Cc1ccc(O)cc1)C(=O)N[C@@H](Cc1cccc2ccccc12)C(=O)N[C@@H](CCC(C)C)C(=O)N[C@@H](CCC(=O)O)C(=O)N[C@@H](CC(N)=O)C(=O)NCC(N)=O)[C@@H](C)O`: the IC50 worked out at 37 nM.

Consider `CC(=O)N[C@@H](CS)C(=O)N[C@@H](CO)C(=O)N[C@H](C(=O)N[C@@H](Cc1c[nH]c2ccccc12)C(=O)N[C@@H](CCC(N)=O)C(=O)N[C@@H](CS)C(=O)N[C@@H](Cc1ccc(O)cc1)C(=O)N[C@@H](Cc1c[nH]c2ccccc12)C(=O)N[C@@H](CO)C(=O)N[C@@H](CCCCN)C(=O)N[C@@H](CCC(N)=O)C(=O)N[C@@H](CO)C(=O)NCC(=O)NCC(=O)N[C@@H](CO)C(N)=O)[C@@H](C)O` (Ac-CSTWQCYWSKQSGGS-NH2), for which the IC50 came out at 204 nM.

The compound `C[C@@H](O)[C@H](NC(=O)[C@H](CCC(N)=O)NC(=O)[C@@H](N)CS)C(=O)N[C@@H](Cc1c[nH]c2ccccc12)C(=O)N[C@@H](CCC(N)=O)C(=O)N[C@@H](CS)C(=O)N[C@@H](Cc1ccc(O)cc1)C(=O)N[C@@H](Cc1c[nH]c2ccccc12)C(=O)N[C@@H](CCCN)C(=O)N[C@@H](CN)C(=O)N[C@@H](Cc1ccccc1)C(=O)NCC(=O)NCCOCC(=O)N[C@H](CCCCN)C(N)=O` displayed an IC50 of 276 nM.

Take `CC(=O)N[C@@H](CC(C)C)C(=O)N[C@@H](CS)C(=O)N[C@@H](CCC(N)=O)C(=O)N[C@H](C(=O)N[C@@H](Cc1c[nH]c2ccccc12)C(=O)N[C@@H](CCC(N)=O)C(=O)N[C@@H](CS)C(=O)N[C@@H](Cc1ccc(O)cc1)C(=O)N[C@@H](Cc1c[nH]c2ccccc12)C(=O)N[C@@H](CCC(C)C)C(=O)N[C@@H](CCC(=O)O)C(=O)N[C@@H](CC(N)=O)C(=O)NCC(N)=O)[C@@H](C)O`: the 50% inhibitory concentration (IC50) came out at 26 nM. Compared with the last compound, the IC50 is about 11-fold lower.

Consider `CC(=O)N[C@@H](CS)C(=O)N(C)[C@@H](CCCNC(=N)N)C(=O)N[C@H](C(=O)N[C@@H](Cc1c[nH]c2ccccc12)C(=O)N[C@@H](CCC(N)=O)C(=O)N[C@@H](CS)C(=O)N[C@@H](Cc1ccc(O)cc1)C(=O)N[C@@H](Cc1c[nH]c2ccccc12)C(=O)N[C@@H](CCCNC(=N)N)C(=O)N[C@H](C(=O)N[C@@H](Cc1ccccc1)C(=O)NCC(=O)NCCC(=O)N[C@H](CCCCN)C(N)=O)C(C)C)[C@@H](C)O`, for which the IC50 worked out at 192 nM.

Turning to `CC(=O)N[C@@H](CS)C(=O)N[C@@H](CCC(N)=O)C(=O)N[C@H](C(=O)N[C@@H](Cc1c[nH]c2ccccc12)C(=O)N[C@@H](CCC(N)=O)C(=O)N[C@@H](CS)C(=O)N[C@@H](Cc1ccc(O)cc1)C(=O)N[C@@H](Cc1c[nH]c2ccccc12)C(=O)N[C@@H](CCC(C)C)C(=O)N[C@@H](CCC(=O)O)C(=O)N[C@@H](CC(N)=O)C(=O)N[C@@H](CCC(=O)O)C(N)=O)[C@@H](C)O`, the IC50 came out at 1000 nM.

In turn, `CC(=O)N[C@@H](CS)C(=O)N[C@@H](CCC(N)=O)C(=O)N[C@H](C(=O)N[C@@H](Cc1c[nH]c2ccccc12)C(=O)N[C@@H](CCC(N)=O)C(=O)N[C@@H](CS)C(=O)N[C@@H](Cc1ccc(O)cc1)C(=O)N[C@@H](Cc1c[nH]c2ccccc12)C(=O)N[C@@H](CCCNC(=N)N)C(=O)N[C@H](C(=O)N[C@@H](Cc1ccccc1)C(=O)NCC(=O)NCCOCC(=O)N[C@H](CCCCN)C(N)=O)C(C)C)[C@@H](C)O` gave an IC50 of 62 nM.

`CC(=O)N[C@@H](CS)C(=O)N[C@@H](CCC(N)=O)C(=O)N[C@H](C(=O)N[C@@H](Cc1c[nH]c2ccccc12)C(=O)N[C@@H](CCC(N)=O)C(=O)N[C@@H](CS)C(=O)N[C@@H](Cc1ccc(O)cc1)C(=O)N[C@@H](Cc1ccc(-c2ccccc2)cc1)C(=O)N[C@@H](CCC(C)C)C(=O)N[C@@H](CCC(=O)O)C(=O)N[C@@H](CC(N)=O)C(=O)NCC(N)=O)[C@@H](C)O` showed an IC50 of 51 nM.

Take `CC(=O)N[C@@H](CS)C(=O)N[C@@H](CO)C(=O)N[C@H](C(=O)N[C@@H](Cc1c[nH]c2ccccc12)C(=O)N[C@@H](CCC(=O)O)C(=O)N[C@@H](CS)C(=O)N[C@@H](Cc1ccc(O)cc1)C(=O)N[C@@H](Cc1c[nH]c2ccccc12)C(=O)N[C@@H](Cc1cnc[nH]1)C(=O)N[C@H](C(=O)N[C@@H](Cc1ccc(O)cc1)C(=O)NCC(N)=O)[C@@H](C)O)[C@@H](C)O`: the IC50 was found to be 286 nM.

As to `CC(=O)N[C@@H](CS)C(=O)N[C@@H](C)C(=O)N[C@@H](CC(=O)O)C(=O)N[C@@H](Cc1c[nH]c2ccccc12)C(=O)N[C@H](C(=O)N[C@@H](CS)C(=O)N[C@@H](Cc1ccc(O)cc1)C(=O)N[C@@H](Cc1c[nH]c2ccccc12)C(=O)N[C@@H](CCCNC(=N)N)C(=O)N[C@@H](CCCCN)C(=O)N[C@@H](Cc1ccccc1)C(=O)NCC(=O)NCCC(=O)N[C@H](CCCCN)C(N)=O)C(C)C`, the half-inhibitory concentration (IC50) amounted to 33 nM. Against the preceding compound, the IC50 is about 8.7-fold lower.

`CC(=O)N[C@@H](CS)C(=O)N[C@@H](CCCNC(=N)N)C(=O)N[C@H](C(=O)N[C@@H](Cc1c[nH]c2ccccc12)C(=O)N[C@@H](CCC(N)=O)C(=O)N[C@@H](CS)C(=O)N[C@@H](Cc1ccc(O)cc1)C(=O)N[C@@H](Cc1c[nH]c2ccccc12)C(=O)N[C@@H](CC(C)C)C(=O)N[C@@H](CCCNC(=N)N)C(=O)N[C@@H](CC(C)C)C(=O)NCC(=O)N[C@@H](CC(=O)O)C(=O)N[C@@H](CCC(=O)O)C(=O)NCC(N)=O)[C@@H](C)O` (Ac-CRTWQCYWLRLGDEG-NH2) came in with a half-inhibitory concentration (IC50) of 483 nM.

Compound `CC(=O)N[C@@H](CS)C(=O)N[C@@H](CCC(N)=O)C(=O)N[C@H](C(=O)N[C@@H](Cc1c[nH]c2ccccc12)C(=O)N[C@@H](CCC(N)=O)C(=O)N[C@@H](CS)C(=O)N[C@@H](Cc1ccc(O)cc1)C(=O)N[C@@H](Cc1c[nH]c2ccccc12)C(=O)N[C@@H](CCC(C)C)C(=O)N[C@@H](CCC(=O)O)C(=O)N1CCC[C@H]1C(=O)NCC(N)=O)[C@@H](C)O` showed an IC50 of 140 nM.
